Source: PubChem BioAssay (NCI)
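Growth conditions: 96-well plates. Treatment: test compound, 48 hours, 5 concentrations. Analysis: linear interpolation between bracketing concentrations; unreached endpoints set to highest concentration. The concentration for full growth arrest is given as TGI.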

Assays:
Experiment in all cases: DTP human tumour cell line panel, 48 h
A498 renal = system: A498 renal
A549 NSCLC = system: A549 NSCLC
ACHN renal = system: ACHN renal
BT-549 breast = system: BT-549 breast
CAKI-1 renal = system: CAKI-1 renal
CCRF-CEM leukemia = system: CCRF-CEM leukemia
COLO 205 colon = system: COLO 205 colon
DU-145 prostate = system: DU-145 prostate
EKVX NSCLC = system: EKVX NSCLC
HCC-2998 colon = system: HCC-2998 colon
HCT-116 colon = system: HCT-116 colon
HCT-15 colon = system: HCT-15 colon
HL-60(TB) leukemia = system: HL-60(TB) leukemia
HOP-62 NSCLC = system: HOP-62 NSCLC
HOP-92 NSCLC = system: HOP-92 NSCLC
HS 578T breast = system: HS 578T breast
HT29 colon = system: HT29 colon
IGROV1 ovarian = system: IGROV1 ovarian
K-562 leukemia = system: K-562 leukemia
KM12 colon = system: KM12 colon
LOX IMVI melanoma = system: LOX IMVI melanoma
M14 melanoma = system: M14 melanoma
MALME-3M melanoma = system: MALME-3M melanoma
MCF7 breast = system: MCF7 breast
MDA-MB-231 breast = system: MDA-MB-231 breast
MDA-MB-435 = system: MDA-MB-435
MDA-N = system: MDA-N
MOLT-4 leukemia = system: MOLT-4 leukemia
NCI-H226 lung = system: NCI-H226 lung
NCI-H23 lung = system: NCI-H23 lung
NCI-H460 lung = system: NCI-H460 lung
NCI-H522 lung = system: NCI-H522 lung
NCI/ADR-RES ovarian = system: NCI/ADR-RES ovarian
OVCAR-3 ovarian = system: OVCAR-3 ovarian
OVCAR-4 ovarian = system: OVCAR-4 ovarian
OVCAR-5 ovarian = system: OVCAR-5 ovarian
OVCAR-8 ovarian = system: OVCAR-8 ovarian
PC-3 prostate = system: PC-3 prostate
RPMI-8226 leukemia = system: RPMI-8226 leukemia
RXF 393 renal = system: RXF 393 renal
SF-268 CNS = system: SF-268 CNS
SF-295 CNS = system: SF-295 CNS
SF-539 CNS = system: SF-539 CNS
SK-MEL-2 melanoma = system: SK-MEL-2 melanoma
SK-MEL-28 melanoma = system: SK-MEL-28 melanoma
SK-MEL-5 melanoma = system: SK-MEL-5 melanoma
SK-OV-3 ovarian = system: SK-OV-3 ovarian
SN12C renal = system: SN12C renal
SNB-19 CNS = system: SNB-19 CNS
SNB-75 CNS = system: SNB-75 CNS
SR leukemia = system: SR leukemia
SW-620 colon = system: SW-620 colon
T-47D breast = system: T-47D breast
TK-10 renal = system: TK-10 renal
U251 CNS = system: U251 CNS
UACC-257 melanoma = system: UACC-257 melanoma
UACC-62 melanoma = system: UACC-62 melanoma
UO-31 renal = system: UO-31 renal
786-0 renal = system: 786-0 renal

## CC1C(=O)N(c2ccccc2)NC12CCCc1ccccc12 (centres undefined)
A498 renal
  TGI: > 100 µM
A549 NSCLC
  TGI: > 100 µM
ACHN renal
  TGI: > 100 µM
BT-549 breast
  TGI: > 100 µM
CAKI-1 renal
  TGI: > 100 µM
CCRF-CEM leukemia
  TGI: > 100 µM
COLO 205 colon
  TGI: > 100 µM
DU-145 prostate
  TGI: > 100 µM
EKVX NSCLC
  TGI: > 100 µM
HCC-2998 colon
  TGI: > 100 µM
HCT-116 colon
  TGI: > 100 µM
HCT-15 colon
  TGI: > 100 µM
HL-60(TB) leukemia
  TGI: > 100 µM
HOP-62 NSCLC
  TGI: > 100 µM
HOP-92 NSCLC
  TGI: > 100 µM
HS 578T breast
  TGI: > 100 µM
HT29 colon
  TGI: > 100 µM
IGROV1 ovarian
  TGI: > 100 µM
K-562 leukemia
  TGI: > 100 µM
KM12 colon
  TGI: > 100 µM
LOX IMVI melanoma
  TGI: > 100 µM
M14 melanoma
  TGI: > 100 µM
MALME-3M melanoma
  TGI: > 100 µM
MCF7 breast
  TGI: > 100 µM
MDA-MB-231 breast
  TGI: > 100 µM
MDA-MB-435
  TGI: > 100 µM
MDA-N
  TGI: > 100 µM
MOLT-4 leukemia
  TGI: > 100 µM
NCI-H226 lung
  TGI: > 100 µM
NCI-H23 lung
  TGI: > 100 µM
NCI-H460 lung
  TGI: > 100 µM
NCI-H522 lung
  TGI: > 100 µM
NCI/ADR-RES ovarian
  TGI: > 100 µM
OVCAR-3 ovarian
  TGI: > 100 µM
OVCAR-4 ovarian
  TGI: > 100 µM
OVCAR-5 ovarian
  TGI: > 100 µM
OVCAR-8 ovarian
  TGI: > 100 µM
PC-3 prostate
  TGI: > 100 µM
RPMI-8226 leukemia
  TGI: > 100 µM
RXF 393 renal
  TGI: > 100 µM
SF-268 CNS
  TGI: > 100 µM
SF-295 CNS
  TGI: > 100 µM
SF-539 CNS
  TGI: > 100 µM
SK-MEL-2 melanoma
  TGI: > 100 µM
SK-MEL-28 melanoma
  TGI: > 100 µM
SK-MEL-5 melanoma
  TGI: > 100 µM
SK-OV-3 ovarian
  TGI: > 100 µM
SN12C renal
  TGI: > 100 µM
SNB-19 CNS
  TGI: > 100 µM
SNB-75 CNS
  TGI: > 100 µM
SR leukemia
  TGI: > 100 µM
SW-620 colon
  TGI: > 100 µM
T-47D breast
  TGI: > 100 µM
TK-10 renal
  TGI: > 100 µM
U251 CNS
  TGI: > 100 µM
UACC-257 melanoma
  TGI: > 100 µM
UACC-62 melanoma
  TGI: > 100 µM
UO-31 renal
  TGI: > 100 µM

## O=C(C/C(=N/O)C(=O)NC1=C(Cl)C(=O)c2ccccc2C1=O)CC(c1ccccc1)c1c(O)c2ccccc2oc1=O (centres undefined)
786-0 renal
  TGI: > 100 µM
A498 renal
  TGI: > 100 µM
A549 NSCLC
  TGI: 35.3 µM
ACHN renal
  TGI: 65.7 µM
BT-549 breast
  TGI: > 100 µM
CAKI-1 renal
  TGI: 32.6 µM
CCRF-CEM leukemia
  TGI: > 100 µM
COLO 205 colon
  TGI: 33.7 µM
DU-145 prostate
  TGI: 11.2 µM
EKVX NSCLC
  TGI: 42.3 µM
HCC-2998 colon
  TGI: 25.6 µM
HCT-116 colon
  TGI: 20.6 µM
HCT-15 colon
  TGI: 14.4 µM
HOP-92 NSCLC
  TGI: > 100 µM
HS 578T breast
  TGI: 50.6 µM
HT29 colon
  TGI: 44.3 µM
IGROV1 ovarian
  TGI: > 100 µM
K-562 leukemia
  TGI: > 100 µM
KM12 colon
  TGI: 17.8 µM
LOX IMVI melanoma
  TGI: > 100 µM
M14 melanoma
  TGI: 18.6 µM
MALME-3M melanoma
  TGI: 4.55 µM
MCF7 breast
  TGI: 26.8 µM
MDA-MB-231 breast
  TGI: 26.5 µM
MDA-MB-435
  TGI: 4.72 µM
MDA-N
  TGI: 3.09 µM
MOLT-4 leukemia
  TGI: > 100 µM
NCI-H226 lung
  TGI: 20.3 µM
NCI-H23 lung
  TGI: 72.1 µM
NCI-H460 lung
  TGI: 16 µM
NCI-H522 lung
  TGI: 52.9 µM
NCI/ADR-RES ovarian
  TGI: > 100 µM
OVCAR-3 ovarian
  TGI: 15.2 µM
OVCAR-4 ovarian
  TGI: 22.2 µM
OVCAR-5 ovarian
  TGI: 32.8 µM
OVCAR-8 ovarian
  TGI: > 100 µM
PC-3 prostate
  TGI: > 100 µM
RPMI-8226 leukemia
  TGI: > 100 µM
RXF 393 renal
  TGI: 35 µM
SF-268 CNS
  TGI: 42.5 µM
SF-295 CNS
  TGI: 22.8 µM
SF-539 CNS
  TGI: 31.7 µM
SK-MEL-2 melanoma
  TGI: 32.4 µM
SK-MEL-28 melanoma
  TGI: > 100 µM
SK-MEL-5 melanoma
  TGI: 2.38 µM
SK-OV-3 ovarian
  TGI: > 100 µM
SN12C renal
  TGI: 23.5 µM
SNB-19 CNS
  TGI: > 100 µM
SNB-75 CNS
  TGI: 19 µM
SR leukemia
  TGI: > 100 µM
SW-620 colon
  TGI: > 100 µM
T-47D breast
  TGI: 38.1 µM
U251 CNS
  TGI: > 100 µM
UACC-257 melanoma
  TGI: > 100 µM
UACC-62 melanoma
  TGI: > 100 µM
UO-31 renal
  TGI: 44.5 µM
